One series is described as follows: in vivo. The conditions noted are these: both, New Zealand albino, rabbit; for AUC / Cmax / Tmax: topical or ocular. The protocol:
In both groups, individual fluoroquinolones were dissolved at concentration of 0.1%. Thus, the total fluoroquinolones concentration in group A and group B were 0.4% and 0.5%, respectively. Sterile boric acid (1.9% w/v) in water was used as the aqueous media and the final formulations were filtered using 0.22 μ filter and autoclaved further before use.
Study protocol and experimental procedures were approved by the Institutional Animal Ethics Committee of All India Institute of Medical Sciences (AIIMS), New Delhi, India. New Zealand albino rabbits of either sex (1.5–2.0 kg) were obtained from Central Animal Facility, AIIMS. Animals were housed at standard laboratory conditions temperature-controlled room at 24 ± 2°C and humidity 55 ± 15% and given food and water ad libitum. All experiments were performed in accordance to the Association for Research in Vision and Ophthalmology (ARVO) statement for the use of animals in ophthalmic and vision research.
The sterile cocktail formulations of group A and group B were individually instilled (50 μL) on the lower fornix of rabbit eyes (n = 4) with the help of a calibrated micropipette. […] For each time point, a volume amounting to 50 μL of aqueous humor was aspirated through the corneal surface. The aqueous humor samples obtained were stored at −80°C until quantification by HPLC.
A Thermo Finnigan (Thermo Electron Corporation, USA) HPLC equipped with degasser, quaternary pump, autosampler, and PDA detector was employed for quantification of fluoroquinolones in samples. In the chromatographic quantification, analytical separation was performed using a C18 Symmetry Shield column (4.6 × 150 mm, 5 μm, Waters, USA) under a gradient flow of methanol, acetonitrile, and potassium phosphate buffer (20 mM, pH 2.5) at different ratio and time. For each spiked compound an external calibration curve was plotted and the analyte's spectra was assessed by matching them with custom made PDA spectra of inbuilt library of Chromquest version 4 (Thermo Electron Corporation, USA).
The dried concentrate was reconstituted with 100 μL mixture of water and acetonitrile (1 : 1), and 20 μL of the obtained supernatant was injected for quantification.
In Vivo Data Permeability coefficients (logPC) were obtained from controlled in vivo experiment conducted in rabbits using cassette dosing (N-in-One) approach.

Series [1] is described as follows: Experimentally derived Δlog P by shake flask method (OECD No. 107 and 117). It counts as physicochemical. The conditions noted are these: difference of log P(o/w) and log P(cyclohexane/water).

Structures are written as SMILES. Structures can show the parent of a compound that is named as a salt.

By AUC is commonly meant concentration integrated over time. A lower AUC goes with low exposure. In general, Cmax refers to the highest concentration seen after dosing. For orientation: Tmax means the time at which the peak concentration occurs. On to `COc1c(N2CCNC(C)C2)c(F)cc2c(=O)c(C(=O)O)cn(C3CC3)c12` (stereo not shown) [Gatifloxacin], for which, in the series “in vivo”, the “logPC (30 min)” value was −5.006, the “logPC (240 min)” value is −6.628, the AUC is 1180 ng·h/mL and the Cmax was 682 ± 904 ng/mL. For the same compound, the Tmax in “in vivo” was 0.5 h. Also, in series [1], the “ΔlogP (Cyclohexane-Octanol)” value is listed as 0.526.
Turning to `C[C@H]1COc2c(N3CCN(C)CC3)c(F)cc3c(=O)c(C(=O)O)cn1c23` [Levofloxacin], the Tmax in “in vivo” was 1 h. Besides, the “ΔlogP (Cyclohexane-Octanol)” value in series [1] is listed as 0.734.
Consider `CCn1cc(C(=O)O)c(=O)c2cc(F)c(N3CCNC(C)C3)c(F)c21` (stereo not shown) [Lomefloxacin HCl, Lomefloxacin], for which, in “in vivo”, the “logPC (30 min)” value was −5.519, the “logPC (240 min)” value is −6.859, the AUC is 833 ng·h/mL and the Cmax worked out at 266 ± 46 ng/mL. For the same compound, in the series “in vivo”, the Tmax was 1 h. Further, the “ΔlogP (Cyclohexane-Octanol)” value in series [1] is 1.113.
With `COc1c(N2C[C@@H]3CCCN[C@@H]3C2)c(F)cc2c(=O)c(C(=O)O)cn(C3CC3)c12` [Moxifloxacin], in the series “in vivo”, the AUC turned out to be 1040 ng·h/mL, the Cmax was found to be 594 ± 294 ng/mL and the Tmax was 0.5 h.
As to `CCn1cc(C(=O)O)c(=O)c2cc(F)c(N3CCNCC3)cc21` [Norfloxacin], in the series “in vivo”, the “logPC (30 min)” value is recorded as −5.051, the “logPC (240 min)” value is given as −6.382, the AUC came out at 2850 ng·h/mL and the Cmax came to 456 ± 59 ng/mL. Moreover, the Tmax in the series “in vivo” is 1 h. Further, the “ΔlogP (Cyclohexane-Octanol)” value in series [1] was 0.051.
Take `CC1COc2c(N3CCN(C)CC3)c(F)cc3c(=O)c(C(=O)O)cn1c23` (stereo not shown) [Ofloxacin]: in the series “in vivo”, the time of peak concentration (Tmax) is 1 h. In addition, in series [1], the “ΔlogP (Cyclohexane-Octanol)” value came to 0.759.
As for `C[C@@H]1CN(c2c(F)c(N)c3c(=O)c(C(=O)O)cn(C4CC4)c3c2F)C[C@H](C)N1` [Sparfloxacin], in “in vivo”, the “logPC (30 min)” value is −4.753, the “logPC (240 min)” value is recorded as −6.396, the area under the curve (AUC) came to 1770 ng·h/mL and the Cmax was 1150 ± 514 ng/mL. Moreover, the Tmax in the series “in vivo” was 0.5 h. Moreover, the “ΔlogP (Cyclohexane-Octanol)” value in series [1] is listed as 1.025.

The values above are taken from PMC3043298, “Development of Novel In Silico Model to Predict Corneal Permeability for Congeneric Drugs: A QSPR Approach” (Journal of Biomedicine and Biotechnology, 2011).
